For orientation: IC50 means the point on the concentration scale where inhibition reaches its midpoint. Read a high IC50 as lower potency.

In series [1] the target is MMP-9 (Homo sapiens, UniProt P14780). Briefly: in vitro MMP inhibition, MMP-9. It counts as biochemical. The following applies: preliminary results.
The target of series [2] is T1, MMP-1 (Homo sapiens, UniProt P03956).
T1 sequence (P03956 100-469): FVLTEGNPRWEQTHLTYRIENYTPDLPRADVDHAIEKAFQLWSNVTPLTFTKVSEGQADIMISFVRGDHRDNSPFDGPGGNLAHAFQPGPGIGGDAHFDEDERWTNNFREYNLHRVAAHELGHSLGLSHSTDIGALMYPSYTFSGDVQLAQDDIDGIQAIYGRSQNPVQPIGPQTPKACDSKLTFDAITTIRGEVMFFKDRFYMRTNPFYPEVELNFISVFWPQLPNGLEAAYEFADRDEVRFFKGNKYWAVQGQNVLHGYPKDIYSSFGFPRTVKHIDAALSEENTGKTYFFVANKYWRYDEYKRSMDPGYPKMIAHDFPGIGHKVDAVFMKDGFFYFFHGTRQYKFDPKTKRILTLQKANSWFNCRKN
Briefly: in vitro MMP inhibition, MMP-1. Type of series: biochemical. The following applies: preliminary results.

In series [3] the target is T2, MMP-2 (Homo sapiens, UniProt P08253).
T2 sequence (P08253 110-660): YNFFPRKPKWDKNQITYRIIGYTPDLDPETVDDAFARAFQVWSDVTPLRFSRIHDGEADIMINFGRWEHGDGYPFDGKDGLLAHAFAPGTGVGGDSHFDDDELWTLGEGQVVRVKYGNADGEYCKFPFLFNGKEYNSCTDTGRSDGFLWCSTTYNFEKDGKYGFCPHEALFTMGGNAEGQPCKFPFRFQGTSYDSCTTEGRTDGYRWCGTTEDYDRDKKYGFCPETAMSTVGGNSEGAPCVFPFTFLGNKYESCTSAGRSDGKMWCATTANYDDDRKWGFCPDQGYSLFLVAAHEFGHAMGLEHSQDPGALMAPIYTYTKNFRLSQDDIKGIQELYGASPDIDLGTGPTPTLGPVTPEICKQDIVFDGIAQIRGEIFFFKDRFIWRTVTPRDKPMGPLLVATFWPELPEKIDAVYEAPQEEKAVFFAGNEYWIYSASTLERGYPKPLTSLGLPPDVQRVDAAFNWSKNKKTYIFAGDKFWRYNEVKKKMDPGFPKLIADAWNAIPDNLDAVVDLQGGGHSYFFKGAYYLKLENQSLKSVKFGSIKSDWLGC
Briefly: in vitro MMP inhibition, MMP-2. Type of series: biochemical. Conditions: preliminary results.

Series [4] in a line: tissue biodistribution after intravenous administration. It counts as in vivo, CL57/BL6 mice. Conditions: i.v. On the procedure: Because the in vitro studies gave promising results, preliminary in vivo studies were performed using the CL57/BL6 mice (8 weeks old). The tissue distribution of [^123I]8 (which is representative for the radioisotopes with alternative halogens), after intravenous administration, was determined at three time points. […] This is regular pharmacokinetic behaviour of a radiotracer.
The extended biodistribution studies were performed using the CL57/BL6 mice (8 weeks old). Here the tissue distribution of [^123I]8, after intravenous administration was determined at 9 time points (up to 24 hours p.i.).

The test system of series [5] is atherosclerotic plaques (MMP-2). Briefly: binding to atherosclerotic plaques in the aortic sinus, storage phosphor imaging. The following applies: ApoE−/− mice on Western Type diet, i.v., three hours after injection, FIG. 3. It counts as in vivo.
Description: Four month old ApoE−/− mice were given a Western Type diet (cat nr. 4021.06; Arie Blok Diervoeding, Woerden, the Netherlands), during one month to stimulate atherogenesis. On the last day of the experiment the radiolabeled MMP-2 antagonist was given by intravenous injection. Three hours after injection, the mice were harvested and the aortic sinus area was analysed overnight using a storage phosphor imaging technique for binding of the MMP2 antagonist.
Where [6] appears, read: CL57/BL6 mice 8 weeks old, three time points, FIG. 1.

Chain of MMP-9 (P14780 94-707, species assumed): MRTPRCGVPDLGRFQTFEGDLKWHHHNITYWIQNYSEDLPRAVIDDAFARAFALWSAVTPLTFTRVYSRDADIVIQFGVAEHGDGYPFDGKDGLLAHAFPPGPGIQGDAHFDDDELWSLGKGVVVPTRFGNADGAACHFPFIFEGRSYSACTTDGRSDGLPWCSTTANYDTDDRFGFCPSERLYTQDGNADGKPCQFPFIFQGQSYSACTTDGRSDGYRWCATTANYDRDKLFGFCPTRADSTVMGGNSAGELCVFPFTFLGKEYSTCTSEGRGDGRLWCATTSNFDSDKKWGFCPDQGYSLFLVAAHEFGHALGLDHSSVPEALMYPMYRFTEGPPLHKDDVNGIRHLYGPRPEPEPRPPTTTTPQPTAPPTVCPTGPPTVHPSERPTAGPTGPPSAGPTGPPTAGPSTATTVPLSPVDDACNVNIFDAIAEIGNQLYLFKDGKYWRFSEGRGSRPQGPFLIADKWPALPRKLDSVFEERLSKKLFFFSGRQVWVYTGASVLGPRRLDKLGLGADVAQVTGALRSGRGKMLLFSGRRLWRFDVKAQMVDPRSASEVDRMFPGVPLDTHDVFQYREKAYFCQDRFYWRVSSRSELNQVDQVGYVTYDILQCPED

For `O=C(O)CN(CC(=O)NO)S(=O)(=O)c1ccc(Oc2ccccc2)cc1` [Compound 6a, {[4-Phenoxy-benzenesulphonyl]-hydroxycarbamoylmethyl-amino}-acetic acid], the IC50 in series [1] was 4.31 ± 2.06 nM; in series [2], 1670 ± 980 nM; in series [3], 1.89 ± 1.11 nM.

As to `O=C(O)CN(CC(=O)NO)S(=O)(=O)c1ccc(Oc2ccc(F)cc2)cc1` [Compound 6b, {[4-(4-Fluoro-phenoxy)-benzenesulphonyl]-hydroxycarbamoylmethyl-amino}-acetic acid], the IC50 in series [1] came to 0.27 ± 0.15 nM; in series [2], 4690 ± 2220 nM; in series [3], 0.13 ± 0.03 nM.

On to `O=C(O)CN(CC(=O)NO)S(=O)(=O)c1ccc(Oc2ccc(Br)cc2)cc1` [Compound 6d, {[4-(4-Bromo-phenoxy)-benzenesulphonyl]-hydroxycarbamoylmethyl-amino}-acetic acid], for which the IC50 in series [1] was 1.95 ± 1.1 nM; in series [2] it was 910 ± 560 nM; in series [3], 0.87 ± 0.4 nM.

For `O=C(O)CN(CC(=O)NO)S(=O)(=O)c1ccc(Oc2ccc(I)cc2)cc1` [Compound 6e, {[4-(4-Iodo-phenoxy)-benzenesulphonyl]-hydroxycarbamoylmethyl-amino}-acetic acid], the figures for the IC50 in series [1], in series [2] and in series [3] were 1.61 ± 1.41 nM, 1320 ± 790 nM and 7.64 ± 1.43 nM, respectively.

As for `O=C(O)CN(CC(=O)NO)S(=O)(=O)c1ccc(Oc2ccc([123I])cc2)cc1` [[^123I]8, {[4-(4-[^123I]Iodophenoxy)-benzenesulphonyl]-hydroxycarbamoylmethyl-amino}-acetic acid], in series [4] (setting [6]), the liver uptake entry was “taken up intensively into the liver”, the route of excretion result is recorded as “excreted mainly via the urinary tract” and the “thyroid uptake (de-iodination in vivo)” value was “very low uptake in the thyroid”. Moreover, the “re-uptake in liver and kidney” value in series [4] (CL57/BL6 mice, 9 time points up to 24 hours p.i., FIG. 2) was “A little re-uptake was observed in the liver and kidney after 3 and 6 hours respectively”. For the same compound, the “radioactivity in the aortic sinus” value in series [5] was “Increased radioactivity was observed in the aortic sinus of the heart”.

Source of the values: patent publication US8524194B2, “Radiolabelled MMP selective compounds” (Academisch Medisch Centrum Bij de Universiteit van Amsterdam, priority 2008, dated 2013).
